From article PMC5608556, “Photo-affinity labelling and biochemical analyses identify the target of trypanocidal simplified natural product analogues” (PLoS Neglected Tropical Diseases, 2017)
Where two headings read alike, the source gives them in different places.

What was measured:
[1] = system: ATP production (oxidative phosphorylation) in digitonin-permeabilised PF T. brucei; assay: ATP production assay in digitonin-permeabilised cells; format: cell-based, Trypanosoma brucei; details: for Effect on ATP production from succinate: succinate 2.5 mM as substrate
Text: We next sought to identify the point at which ATP production was blocked using digitonin-permeabilised cells. Digitonin permeabilises the plasma membrane of trypanosomatids, but crucially, leaves the glycosomes and mitochondria intact and fully functional, allowing them to be probed with compartment-specific ATP-yielding substrates. Digitonin-permeabilised PF T. brucei were probed with succinate, which is readily transported across the PF T. brucei mitochondrial membrane by the dicarboxylic acid carrier and can yield only oxidative phosphorylation-derived ATP through the FoF1-ATP synthase (complex V).
Fig 5 Inhibition of ATP production in digitonin-permeabilsed cells. (A-C) Digitonin-permeabilised PF T. brucei were probed with substrates in the presence of inhibitors and resulting ATP production quantified by bioluminescence assay. See experimental section for details. Inhibitors were used at saturating concentrations to ensure that relevant enzyme activities were ablated. Key: NS, no substrate; NI, no inhibitor; SHAM, salicylhydroxamic acid (TAO inhibitor at 100 μM); Rotenone (complex I inhibitor at 100 μM); Malonate (complex II inhibitor at 5 mM); AA, antimycin A (complex III inhibitor at 200 μM); OA, oligomycin A (complex V inhibitor at 200 μM); DNP, 2,4-dinitrophenol (protonophore at 1 mM); Comp.1, compound 1 at 200 μM. Background relative light units (RLU) were subtracted from measurements and % ATP production normalised to the no inhibitor control. Data were averaged from three independent experiments, each performed in quadruplicate. Error bars show standard deviations. T-tests were performed against no inhibitor controls (black asterisks) and compound 1 (grey open circles) and significance values presented: p < 0.00005 (*** / °°°), p < 0.0005 (** / °°), p < 0.005 (* / °). (A) Succinate was used as a substrate to generate ATP solely through oxidative phosphorylation (OxPhos). Oxidative phosphorylation inhibitors malonate, AA, OA and DNP virtually eliminated all ATP production. […] (B) α-ketoglutarate yields 40% ATP through substrate-level phosphorylation (SubPhos) and 60% through oxidative phosphorylation. Malonate, AA, OA and DNP inhibit oxidative phosphorylation, but not substrate-level phosphorylation. […] (C) Gly-3P acts as an alternative entry site to the electron transport chain yielding ATP through oxidative phosphorylation and the glycosome (GlyPhos). Malonate has no effect, as it acts at a different entry point. AA, OA and DNP inhibit oxidative phosphorylation, but not glycosomal phosphorylation.
ATP production assays were carried out in duplicate, and three independent assays were conducted. Cells were digitonin-permeabilised as previously described. Briefly, cells were washed in PBS and permeabilised for 5 min at a density of 1x10^8 cells/mL in SoTE buffer (20 mM Tris.HCl (pH 7.5), 2 mM EDTA pH 7.5, 600 mM sorbitol) supplemented with 0.015% (w/v) digitonin. Permeabilised cells were pelleted at 5000 g for 3 min at 4°C and suspended to 8.4x10^7 cells/mL in ATP assay buffer (20 mM Tris.HCl (pH 7.4), 15 mM KH2PO4, 0.6 M sorbitol, 10 mM MgSO4, 2.5 mg/mL fatty acid-free BSA.
ATP production assays were carried out in 75 μl volumes in 96-well plates with a final PF T. brucei cell density of 6.7 x 10^7 cells/mL as previously reported. […] B-THP-Ts, antimycin A (AA) and oligomycin A (OA) were used at 200 μM, Dinitrophenol (DNP) at 1 mM, malonate at 5 mM, rotenone at 100 μM and salicylhydroxamic acid (SHAM) at 100 μM. 59.25 μL digitonin-permeabilised cells (prepared above) were added to 0.75 μl inhibitor dissolved in DMSO (or 0.75 μL DMSO without inhibitor for no inhibitor control) and incubated for 10 min to allow inhibitors to take effect. Substrate was added to 2.5 mM and incubated for 10 min. Reactions were started with the addition of ADP to 60 μM and incubated at RT for 30 min. […]

[2] = system: mitochondrial membrane potential (Δψm) in live PF T. brucei; assay: MitoTracker monitoring of mitochondrial membrane potential; format: cell-based, Trypanosoma brucei; details: 2 h; for Elevation of mitochondrial membrane potential (Δψm): compounds at 40 μM, MitoTracker Red/Green ratio relative to uninhibited control; for Effect on mitochondrial membrane potential (Δψm): AA and OA 2 μM, DNP 1 mM
Text: To determine which mitochondrial complex of oxidative phosphorylation was targeted by B-THP-T compounds, their effects on the mitochondrial membrane potential (Δψm) were monitored in live PF T. brucei (Fig 6A). MitoTracker Red CMXRos, like tetramethylrhodamine and safranine, accumulates in active mitochondria and the degree of accumulation is dependent on the Δψm, however, accumulation of MitoTracker Green FM is independent of the Δψm and the ratio of red/green uptake can therefore be used to determine the Δψm normalised to the number and size of mitochondria present. […] Similarly, compounds 1 and 3 elevated the mitochondrial membrane potential (by 2-3-fold), confirming that they, like OA, reduce oxidative phosphorylation by the inhibition of the FoF1-ATP synthase.
Fig 6 Effects of compounds on mitochondrial membrane potential. PF T. brucei were incubated with inhibitors and MitoTracker Red CMXRos, which is an indicator of the mitochondrial membrane potential (Δψm). (A) MitoTracker-loaded cells were imaged to qualitatively detect differences in the Δψm. […] (B) Fluorescence of MitoTracker-loaded cells were quantified using a microplate reader and normalised to MitoTracker green fluorescence.
2 x 10^6 PF T. brucei cells were incubated in 1 mL GF-SDM-79 growth media supplemented with/without inhibitors for 2 h. B-THP-Ts were used at 40 μM, AA and OA at 2 μM, DNP at 1 mM and SHAM at 100 μM. MitoTracker Red CMXRos and MitoTracker Green FM were added to 100 nM and 1 μM respectively and incubated for a further 10 min. Cells were washed in growth medium and the MitoTracker reagents chased into the mitochondrion for 10 min in fresh growth medium supplemented with inhibitors. Cells were washed again in growth medium to remove unincorporated MitoTracker reagents, pelleted, suspended in 100 μL 4% PFA in PBS, and fixed at RT in the dark for 10 min. Fixed cells were pelleted and suspended in 100 μl PBS. Cells were transferred to poly-lysine-coated slides and mounted with DAPI-containing SlowFade mounting medium (Invitrogen). Fluorescence images were collected with a DeltaVision microscope (as detailed above) to show MitoTracker localisation and comparative intensity.
1 mL of cells at 1 x 10^7 cells/mL were labelled as above. However, instead of fixing cells they were resuspended in 200 μL growth medium and transferred to 96-well plates. Fluorescences were recorded (excitation at 540/35 nm, emission at 590/10 nm for MitoTracker Red CMXRos, and excitation at 485/20 nm, emission at 528/20 nm for MitoTracker Green FM) using a BioTek FLX800 spectrofluorimeter and Gen5 Reader Control 2.0 software, in much the same way as others have recorded previously. Background fluorescence values were subtracted from each and MitoTracker Red fluorescences normalised against their MitoTracker Green FM counterparts. Membrane potentials were then calculated relative to the uninhibited controls.

[3] = glycerol-3-phosphate as substrate, 30 min, compound 1, AA, OA 200 μM, DNP 1 mM
[4] = 30 min, compound 1, AA, OA 200 μM, DNP 1 mM, malonate 5 mM, rotenone, SHAM 100 μM

SMILES | IC50 ([1]; Trypanosoma brucei, 0.5 h, read-out: IC50 against oxidative phosphorylation (ATP production), Gly-3P as substrate, digitonin-permeabilised PF T. brucei, Gly-3P, 30 min incubation) [µM] | IC50 ([1]; Trypanosoma brucei, 0.5 h, read-out: IC50 against oxidative phosphorylation (ATP production), succinate as substrate, digitonin-permeabilised PF T. brucei, succinate, 30 min incubation) [µM] | Inhibition of ATP production from Gly-3P [1, 3] [%] | IC50 ([1]; read-out: IC50 against oxidative phosphorylation (ATP production), Gly-3P as substrate, digitonin-permeabilised PF T. brucei, Gly-3P, 30 min incubation) [µM] | IC50 ([1]; read-out: IC50 against oxidative phosphorylation (ATP production), succinate as substrate, digitonin-permeabilised PF T. brucei, succinate, 30 min incubation) [µM] | Effect on ATP production from succinate [1, 4] | Inhibition of ATP production from α-ketoglutarate ([1]; α-ketoglutarate as substrate, 30 min, compound 1, AA, OA 200 μM, DNP 1 mM, malonate 5 mM) [%] | Elevation of mitochondrial membrane potential (Δψm) [2] | Effect on ATP production from Gly-3P ([1]; glycerol-3-phosphate as substrate, 30 min, malonate 5 mM, rotenone, SHAM 100 μM) | Effect on mitochondrial membrane potential (Δψm) [2]
CCCCCC[C@H]1CCC[C@@H](Cn2cc([C@@H]3CCC[C@H](CCCCO)O3)nn2)O1 [Compound 1] | 39.2 ± 4.6 | 57.3 ± 14.5 | 82 ± 16 | 39 ± 5 | 57 ± 15 | decreased ATP production from succinate to similar levels | 67 ± 13 | 2-3 fold | – | –
C#CCNC(=O)CCC[C@H]1CC2(C[C@@H](Cn3cc([C@@H]4CCC[C@H](CCCCOCc5ccccc5)O4)nn3)O1)N=N2 [Compound 3] | – | – | – | – | – | – | – | 2-3 fold | – | –
O=C(O)CC(=O)O [malonate] | – | – | – | – | – | completely eliminated all ATP production | – | – | no effect | decrease the Δψm
CCCCCC[C@H]1C(=O)O[C@H](C)[C@H](NC(=O)c2cccc(NC=O)c2O)C(=O)O[C@@H](C)[C@@H]1OC(=O)CC(C)C [antimycin A] | – | – | 75 ± 14 | – | – | almost abolished ATP production | – | – | – | decrease the Δψm
